Assay [1] deals with Plasmodium falciparum. In words: Inhibition of Plasmodium falciparum recombinant falcipain-3 at 100 uM by standard fluorescence assay.
The target in assay [2] is Rhodesain (Trypanosoma brucei rhodesiense) (UniProt Q95PM0). In words: Inhibition of Trypanosoma brucei rhodesiense recombinant rhodesain at 100 uM by standard fluorescence assay.
The test system of assay [3] is Plasmodium falciparum. In words: Antiplasmodial activity against Plasmodium falciparum W2 at 100 uM by flow cytometry. The format is functional. A general note: Flow cytometry measures light scatter and fluorescence of single cells or particles in a stream.
The subject of assay [4] is Trypanosoma brucei brucei. In words: Antitrypanosomal activity against Trypanosoma brucei brucei at 100 uM. The format is functional, organism-based.
For assay [5], the system named is Plasmodium falciparum. The assay is described as follows: Inhibition of Plasmodium falciparum recombinant falcipain-2 at 100 uM by standard fluorescence assay.
The subject of assay [6] is Trypanosoma brucei brucei. In words: Antitrypanosomal activity against Trypanosoma brucei brucei. The format is functional, organism-based.
Assay [7] can be described thus: Inhibition of Plasmodium falciparum recombinant falcipain-2 using Cbz-Leu-Arg-AMC as substrate by standard fluorescence assay.
Assay [8] is described as follows: Cytotoxicity against mouse J774.1 cells. In kind it is cell-based.
The subject of assay [9] is Plasmodium falciparum. In words: Antiplasmodial activity against Plasmodium falciparum W2 by flow cytometry. In kind it is functional, organism-based.
Assay [10] is described as follows: Inhibition of Plasmodium falciparum recombinant falcipain-3 by standard fluorescence assay.

pIC50, pKi: −log10 of the molar value. Active and inactive are the calls of the source. The calls are words filed in the database; no cut-off is given here. Residues, ends and D or L forms follow the SMILES beside them. *: point of attachment. X1 = O=C(/C=C/CO)*

Sequence of Rhodesain (Trypanosoma brucei rhodesiense) (Q95PM0 1-450): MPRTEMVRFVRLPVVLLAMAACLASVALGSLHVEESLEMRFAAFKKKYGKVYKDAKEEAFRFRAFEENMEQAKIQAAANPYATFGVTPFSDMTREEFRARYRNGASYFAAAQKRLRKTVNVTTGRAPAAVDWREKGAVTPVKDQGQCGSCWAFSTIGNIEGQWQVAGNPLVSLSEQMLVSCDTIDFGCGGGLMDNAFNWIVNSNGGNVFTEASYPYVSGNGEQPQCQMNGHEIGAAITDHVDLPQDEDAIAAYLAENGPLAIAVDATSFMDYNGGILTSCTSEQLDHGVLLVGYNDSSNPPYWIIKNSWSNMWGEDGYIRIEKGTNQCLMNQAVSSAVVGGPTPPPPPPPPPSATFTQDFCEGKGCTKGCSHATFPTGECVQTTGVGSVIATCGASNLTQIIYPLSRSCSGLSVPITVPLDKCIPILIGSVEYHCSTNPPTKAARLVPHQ

As usually defined, the inhibition is how much of the control response was suppressed. As to `CCOC(=O)/C=C/COC(=O)[C@H](CCC(N)=O)NC(=O)[C@H](CC(C)C)NC(=O)OC(C)(C)C`, the inhibition entry (in the assay with Plasmodium falciparum [1]; in assay [2]; with Plasmodium falciparum [3]; in assay [4]; with Plasmodium falciparum [5]) was “inactive” in each case.

As usually defined, the pIC50 is −log10 of the IC50, conventionally taken in molar units. A high value points to a low IC50. As a reminder, the pKi is the Ki on a negative log10 scale, so that one unit is a factor of ten. As for `CCOC(=O)/C=C\C(=O)N[C@@H](Cc1ccccc1)C(=O)N[C@@H](C)C(=O)OCc1ccccc1`, the pIC50 is 5.57 in assay [6] and 5.52 in assay [8]. The inhibition entry in the assay on Plasmodium falciparum [1] and in the assay on Plasmodium falciparum [3] was “inactive” in each case. For the same compound, the inhibition in assay [2] worked out at 43%. Also, in assay [7], the pKi is 4.60.

`CCOC(=O)/C=C/COC(=O)[C@H](CCC(N)=O)NC(=O)[C@H](CC(C)C)NC(=O)[C@H](C)NC(=O)OC(C)(C)C`: the inhibition result in [2] and in assay [4] was “inactive” each time. Moreover, the pKi in assay [7] was 5.51; in assay [10], 4.62. In addition, in the assay on Plasmodium falciparum [9], the pIC50 was 4.68.

For `CCOC(=O)/C=C/C(=O)O.CCOC(=O)/C=C/C(=O)OC[C@H](CCC(N)=O)NC(=O)OC(C)(C)C`, the inhibition result (in the assay with Plasmodium falciparum [1]; in [2]; in the assay on Plasmodium falciparum [3]; in [4]; in the assay with Plasmodium falciparum [5]) was “inactive” in each case.

Turning to `CCOC(=O)/C=C/C(=O)N[C@@H](CCC(N)=O)C(=O)OC(C)(C)C`, the inhibition result (in the assay with Plasmodium falciparum [1]; in assay [2]; in assay [4]; in the assay with Plasmodium falciparum [5]) was “inactive” in each case. Further, the negative logarithm of the IC50 (pIC50) in the assay on Plasmodium falciparum [9] was 4.12.

As for `CCOC(=O)/C=C/CCOC(=O)[C@H](Cc1ccccc1)NC(=O)OCc1ccccc1`, the pIC50 in assay [6] was 4.72; in assay [8], less than 4.00. Moreover, the inhibition result in the assay on Plasmodium falciparum [1] and with Plasmodium falciparum [3] was “inactive” throughout. Also, in assay [2], the inhibition came out at 36%. Further, the negative-log Ki (pKi) in assay [7] was 4.54.

For the compound `CCOC(=O)/C=C\CNC(=O)[C@@H](Cc1ccccc1)NC(=O)OC(C)(C)C`, the values for the negative-log IC50 (pIC50) (in assay [6]; in the assay with Plasmodium falciparum [9]) were 4.54 and 4.37, respectively. Also, the inhibition in assay [2] was found to be 47%. In addition, in the assay on Plasmodium falciparum [5], the inhibition entry is “inactive”.

Consider `CCOC(=O)/C=C/N[C@@H](CC(N)=O)C(=O)OC(C)(C)C`, for which the inhibition entry (with Plasmodium falciparum [1]; in assay [2]; in the assay with Plasmodium falciparum [3]; in assay [4]; in the assay on Plasmodium falciparum [5]) was “inactive” each time.

`CCOC(=O)/C=C/CN[C@@H](Cc1ccccc1)C(=O)OCc1ccccc1`: the pIC50 was 4.60 in assay [6] and 4.44 in assay [8]. Besides, the inhibition entry (in the assay on Plasmodium falciparum [1]; in assay [2]; in the assay on Plasmodium falciparum [3]) was “inactive” in each case. For the same compound, the pKi in assay [7] was 3.82.

On to `CCOC(=O)/C=C/CN[C@@H](CCC(N)=O)C(=O)OC(C)(C)C`, for which the inhibition result (in the assay with Plasmodium falciparum [1]; in assay [2]; with Plasmodium falciparum [3]; in [4]; in the assay with Plasmodium falciparum [5]) was “inactive” in each case.

In turn, `CCOC(=O)/C=C/C(=O)O.CCOC(=O)/C=C/C(=O)OC[C@H](CCC(N)=O)NC(=O)[C@@H](NC(=O)OC(C)(C)C)c1ccccc1` showed a pIC50 in [6] of 4.50. Moreover, in assay [2], the inhibition was 25%. Further, the inhibition entry in the assay on Plasmodium falciparum [5] is “inactive”.

For `CCOC(=O)/C=C/COC(=O)[C@H](CCC(N)=O)NC(=O)[C@@H](NC(=O)OC(C)(C)C)C1CCCCC1`, the pIC50 in [6] is 4.49. The inhibition result (in the assay on Plasmodium falciparum [1]; in assay [2]; in the assay with Plasmodium falciparum [3]) was “inactive” each time. The pKi in assay [7] is 4.60.

`CCOC(=O)/C=C\C(=O)N[C@@H](Cc1ccccc1)C(=O)N[C@@H](C)C(=O)N[C@@H](CC(C)C)C(=O)OCc1ccccc1`: the pIC50 was 4.83 in assay [6], 4.55 in the assay with Plasmodium falciparum [9] and 4.54 in assay [8]. Moreover, in [2], the inhibition was found to be 29%. In addition, the values for the negative logarithm of the Ki (pKi) in assay [7] and in [10] were 5.18 and 4.43, respectively.

As to `CCOC(=O)/C=C/COC(=O)[C@H](CC(N)=O)NC(=O)[C@H](CC(C)C)NC(=O)OC(C)(C)C`, the inhibition result (in the assay on Plasmodium falciparum [1]; in [2]; in the assay on Plasmodium falciparum [3]; in assay [4]) was “inactive” in each case. Besides, the pKi in [7] is 4.60.

With `O=C(O)/C=C/C(=O)N[C@@H](Cc1ccccc1)C(=O)OCc1ccccc1`, the inhibition in [2] was found to be 11%. Besides, the inhibition result (in the assay on Plasmodium falciparum [3]; in [4]; with Plasmodium falciparum [5]) was “inactive” in each case.

With `C[C@H](NC(=O)[C@H](Cc1ccccc1)NC(=O)/C=C\C(=O)O)C(=O)OCc1ccccc1`, the inhibition entry in the assay on Plasmodium falciparum [1] was “inactive”. Besides, the pKi in [7] was 4.60. The pIC50 in the assay on Plasmodium falciparum [9] is 4.30.

For the compound `CCOC(=O)/C=C/C(=O)N[C@@H](CC(N)=O)C(=O)OC(C)(C)C`, the inhibition result (in the assay on Plasmodium falciparum [1]; in [2]; in the assay with Plasmodium falciparum [3]; in [4]; in the assay on Plasmodium falciparum [5]) was “inactive” in each case.

As to `CCOC(=O)/C=C/COC(=O)[C@H](CCC(N)=O)NC(=O)OC(C)(C)C`, the inhibition result (with Plasmodium falciparum [1]; in [2]; with Plasmodium falciparum [3]; in assay [4]) was “inactive” throughout. Besides, in assay [7], the negative-log Ki (pKi) is 4.42.

In the case of `CCOC(=O)/C=C\C(=O)OC[C@H](Cc1ccccc1)NC(=O)OC(C)(C)C`, the pIC50 was 4.77 in assay [6] and 4.00 in the assay with Plasmodium falciparum [9]. Besides, the inhibition entry in the assay with Plasmodium falciparum [1] is “inactive”. Also, in [7], the pKi is 4.27.

As for `CCOC(=O)/C=C/CN[C@@H](CC(N)=O)C(=O)OC(C)(C)C`, the inhibition entry (with Plasmodium falciparum [1]; in [2]; with Plasmodium falciparum [3]; in [4]; with Plasmodium falciparum [5]) was “inactive” in each case.

For the compound `O=C(O)/C=C\C(=O)N[C@@H](Cc1ccccc1)C(=O)OCc1ccccc1`, the inhibition entry in assay [2] and in [4] was “inactive” each time. Besides, the negative logarithm of the Ki (pKi) in assay [7] was 5.12; in [10], 4.37. Besides, the negative logarithm of the IC50 (pIC50) in the assay on Plasmodium falciparum [9] is 4.00.

As to `CCOC(=O)/C=C\C(=O)N[C@@H](Cc1ccccc1)C(=O)OCc1ccccc1`, the pIC50 in assay [6] is 5.10; in assay [8], 5.48. Besides, the inhibition entry in the assay with Plasmodium falciparum [1] was “inactive”. In [2], the inhibition worked out at 15%. In addition, the inhibition at 100 µM in the assay on Plasmodium falciparum [3] stood at 28%. The pKi in assay [7] was 4.58.

As for `CCOC(=O)/C=C/COC(=O)[C@H](CC(N)=O)NC(=O)[C@@H](NC(=O)OC(C)(C)C)C1CCCCC1`, the inhibition entry (in the assay with Plasmodium falciparum [1]; in [2]; in assay [4]; with Plasmodium falciparum [5]) was “inactive” in each case. This compound showed a negative-log IC50 (pIC50) in the assay with Plasmodium falciparum [9] of 4.88.

In the case of `CCOC(=O)/C=C/COC(=O)[C@H](CC(N)=O)NC(=O)OC(C)(C)C`, the inhibition entry in [2] and in assay [4] was “inactive” throughout. The figures for the pKi in assay [7] and in assay [10] were 4.77 and 4.24, respectively. Further, the negative-log IC50 (pIC50) in the assay on Plasmodium falciparum [9] was 4.46.

With `CCOC(=O)/C=C/C(=O)N[C@@H](CC(=O)NC(c1ccccc1)(c1ccccc1)c1ccccc1)C(=O)OC`, the pIC50 in assay [6] was 4.60; with Plasmodium falciparum [9] it was 5.14. The inhibition entry in the assay with Plasmodium falciparum [1] was “inactive”. Also, in assay [2], the inhibition amounted to 20%. Moreover, the pKi in assay [7] is 4.92.

Regarding `CCOC(=O)/C=C\[C@H](Cc1ccccc1)NC(=O)OC(C)(C)C`, the inhibition result in [2] and in [4] was “inactive” throughout. Also, the results for the pKi in assay [7] and in assay [10] were 4.78 and 3.70, respectively. For the same compound, the negative-log IC50 (pIC50) in the assay on Plasmodium falciparum [9] was 4.00.

Turning to `C/C=C/C(=O)N[C@@H](Cc1ccccc1)C(=O)OCc1ccccc1`, the pIC50 in assay [6] is 5.55; in [8], 4.34. Further, the inhibition entry (in the assay with Plasmodium falciparum [1]; in assay [2]; with Plasmodium falciparum [3]) was “inactive” each time. Further, the pKi in assay [7] is 4.69.

For `CCOC(=O)/C=C/OC[C@H](CCC(N)=O)NC(=O)OC(C)(C)C`, the inhibition result (with Plasmodium falciparum [1]; in [2]; in the assay with Plasmodium falciparum [3]; in [4]; in the assay on Plasmodium falciparum [5]) was “inactive” each time.

Consider `CCOC(=O)/C=C/N[C@@H](CCC(N)=O)C(=O)OC(C)(C)C`, for which the inhibition result (with Plasmodium falciparum [1]; in assay [2]; in the assay with Plasmodium falciparum [3]; in assay [4]; in the assay with Plasmodium falciparum [5]) was “inactive” each time.

On to `CCOC(=O)/C=C/C(=O)O.CCOC(=O)/C=C/C(=O)OC[C@H](CC(N)=O)NC(=O)OC(C)(C)C`, for which the inhibition entry (in the assay with Plasmodium falciparum [1]; in [2]; with Plasmodium falciparum [3]; in assay [4]; with Plasmodium falciparum [5]) was “inactive” each time.

Turning to `CC(C)C[C@H](NC(=O)[C@H](C)NC(=O)[C@H](Cc1ccccc1)NC(=O)/C=C\C(=O)O)C(=O)OCc1ccccc1`, the inhibition entry with Plasmodium falciparum [1] is “inactive”. In assay [7], the pKi was 4.98. In the assay on Plasmodium falciparum [9], this compound gave a negative logarithm of the IC50 (pIC50) of 4.84.

On to `CC(C)C[C@H](NC(=O)[C@H](CCC(N)=O)NC(=O)/C=C/CO)C(=O)N[C@H](C(=O)N[C@H](C(N)=O)C(C)C)C(C)C` (X1-QLVV-NH2), for which the inhibition result in [2] was “inactive”. Besides, the inhibition with Plasmodium falciparum [5] was found to be 27%.

For the origin of these results see ChEMBL document CHEMBL1156268, “Michael acceptor based antiplasmodial and antitrypanosomal cysteine protease inhibitors with unusual amino acids” (J Med Chem, 2010).
